SMILES strings stand for the structures. Values joined by “and” are separate entries in the source; they are usually repeats but may differ in a detail not shown here. Identical values can stand only once. Like-named read-outs stand apart in the source and are kept apart here.

Data set [1] has as its target T1, A2A receptor (Homo sapiens, UniProt P29274). Put plainly: Inhibition of cAMP production in HEK cells. Particulars: HEK-293 cells with A2A receptor. Type of data set: cell-based. (In general: Changes in cAMP serve as a functional read-out for many G protein-coupled receptors.)
Data set [2] in a line: Concentration in brain and cerebrospinal fluid compared to plasma. Particulars: for concentration at 0.5 h / Kp at 0.5 h / plasma concentration at 0.5 h: female, Balb-c, mouse, po; for plasma concentration at 0.5 h: Plasma Concentration (ng/mL). Type of data set: in vivo, mice. The method, then: 7-9 weeks old female Balb-c mice (obtained from SLAC Laboratory Animal Co. Ltd., Shanghai, China or SIPPR-B&K Laboratory Animal Co. Ltd., Shanghai, China) were dosed orally at a dose of 10 mg/kg, as a 1.00 mg/mL suspension in 10% DMSO+10% solutol+80% water, adjusted to pH 3-4 (homogenous opaque suspension).
Animals were fasted at least 12 hours prior to the administration. All animals had access to Certified Rodent Diet (Catalog # M01-F, SLAC Laboratory Animal Cl. Ltd., Shanghai, China) ad libitum 4 hours post dosing. Serial bleeding (about 30 μL blood per time point) were performed from submadibular or saphenous vein. Those samples were transferred into prechilled microcentrifuge tubes containing 2 μL of K2EDTA (0.5M) as anti-coagulant and placed on wet ice for further treatment. Immediately after blood collection, the whole brain was harvested immediately at the designed time points. At selected timepoints post-dose, CSF was collected from cisterna magna.
Blood samples were processed for plasma by centrifugation at approximately 4° C., 3000 g 15 min within half an hour of collection. Plasma samples were stored in polypropylene tubes, quick frozen over dry ice and kept at −70° C. until LC/MS/MS analysis. Brain samples were weighed, rinsed in cold distilled water to remove blood, and homogenized using pre-cooled water at the ratio of 1:4 (1 g brain used 4 mL water). And the brain homogenization was kept at −70° C. until LC/MSMS analysis. CSF was quick frozen over dry ice and kept at −70° C. until LC/MS/MS analysis.

Data set [3] addresses T1, A2A receptor. In words: Human IL-2 T cell assay (restoration of IL-2 production in CGS-21680-treated CD3+ T cells). The format is cell-based. Also on record: endogenous in cells; host or cells: human CD3+ T cells isolated from venous blood of healthy volunteers. Particulars: restoration of IL-2 production, human CD3+ T cells, anti-CD3/CD28 beads, 72 hours. The text has this:
When T-cells are activated, they produce pro-inflammatory cytokines. When the A2A receptor is activated in T cells, the amount of cytokines produced in response to stimulation of T-cells is reduced.
Venous blood from healthy volunteers, all of whom signed an informed consent approved by the Ethics Committee (FOR-UIC-BV-050-01-01 ICF_HBS_HD Version 5.0), was obtained via ImmuneHealth (Centre Hospitalier Universitaire Tivoli, La Louviere, Belgium). Mononuclear cells were collected by density gradient centrifugation, using SepMate-50 tubes (StemCell Technologies, Grenoble, France) and Lymphoprep (Axis-shield, Oslo, Norway) according to the manufacturer's instructions. CD3+ T cells were isolated by immunomagnetic negative selection, using the EasySep Human T Cell Isolation Kit (StemCell Technologies) as per manufacturer's instructions. CD3+ T cells were stored in heat inactivated foetal bovine serum (hiFBS; Gibco, ThermoFisher Scientific, Merelbeke, Belgium) containing 10% DMSO in liquid nitrogen.
Human purified CD3+ T cells were thawed and washed twice with RPMI1640 medium (with UltraGlutamine; Lonza, Verviers, Belgium) supplemented with 1× non-essential amino acids (Lonza), 2% Pen/Strep (Lonza) and 1 mM Sodium Pyruvate (Gibco) (complete media), containing 10% hiFBS. The cells were suspended either in complete media containing 20% hiFBS or in 100% heat inactivated human serum (hiHS; Sigma-Aldrich, Diegem, Belgium). Cells were activated by adding anti-CD3 and anti-CD28 coated microbeads (Dynabeads human T-activator CD3/CD28; Life Technologies, Paisley, UK), suspended either in complete media containing 20% hiFBS or in 100% hiHS. […] Serial dilutions of the compounds of the present invention were prepared and added to the wells. The cells were placed in a 37° C. humidified tissue culture incubator with 5% CO2 for 72 hours. After 72 hours, supernatants were sampled and IL-2 was quantified using the IL-2 (human) AlphaLISA Biotin-Free Detection Kit (AL333F; Perkin-Elmer, Zaventem, Belgium), according to the manufacturer's instructions.

Data set [4] addresses T1, A2A receptor. In words: Modulation of pCREB in human immune cells. Type of data set: cell-based. Also on record: endogenous in cells; host or cells: human CD3+ T cells isolated from venous blood of healthy volunteers. Particulars: read-out: IC50 of pCREB inhibition. The method, then: The A2A receptor is known to mediate CREB phosphorylation.
Venous blood from healthy volunteers, all of whom signed an informed consent approved by the Ethics Committee (FOR-UIC-BV-050-01-01 ICF_HBS_HD Version 5.0), was obtained via ImmuneHealth (Centre Hospitalier Universitaire Tivoli, La Louviere, Belgium). […] All dilutions were prepared in RPMI1640 medium (with UltraGlutamine; Lonza, Verviers, Belgium), and cells were incubated with compounds in a 37° C. humidified tissue culture incubator with 5% CO2. After stimulation, cells were fixed and permeabilized, followed by intracellular staining using mouse anti-human pCREB antibodies (Clone J151-21; BD Biosciences) at room temperature. Data were acquired using an LSRFortessa flow cytometer (BD Biosciences) and analyzed using FlowJo software (FlowJo, LLC, Ashland, Oreg.).

Setting [5] is: individual mice, PO 10 mg/kg, 0.500 h, 10 mg/kg.

T1 sequence (P29274 whole entry): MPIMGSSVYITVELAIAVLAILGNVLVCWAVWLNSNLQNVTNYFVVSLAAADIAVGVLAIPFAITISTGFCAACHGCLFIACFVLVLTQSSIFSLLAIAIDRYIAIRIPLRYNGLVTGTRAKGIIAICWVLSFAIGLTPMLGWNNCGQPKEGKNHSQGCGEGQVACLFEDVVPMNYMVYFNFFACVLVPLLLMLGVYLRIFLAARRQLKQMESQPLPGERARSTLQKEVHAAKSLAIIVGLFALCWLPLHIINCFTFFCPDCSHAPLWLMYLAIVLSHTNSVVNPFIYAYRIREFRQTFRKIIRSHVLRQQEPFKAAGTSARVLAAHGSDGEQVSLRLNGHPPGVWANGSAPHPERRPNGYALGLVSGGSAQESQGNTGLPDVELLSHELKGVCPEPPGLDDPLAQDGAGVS

On to `NC(=O)COc1cc(N2CCN(CCn3c(=O)sc4c3nc(N)n3nc(-c5ccco5)nc43)CC2)c(F)cc1F` [Compound 4, 2-(5-(4-(2-(5-amino-8-(furan-2-yl)-2-oxothiazolo[5,4-e][1,2,4]triazolo [1,5-c]pyrimidin-3(2H)-yl)ethyl)piperazin-1-yl)-2,4-difluorophenoxy)acetamide], for which the IC50 (as a rule, the concentration that gives 50% inhibition) on A2A receptor [1] (IC50 (nM) (3 nM NECA as agonist, 0.1% BSA), 3 nM NECA as agonist, 0.1% BSA) turned out to be 0.5 nM; at A2A receptor [1] (IC50 (nM) (5 nM NECA as agonist, 2% HSA), 5 nM NECA as agonist, 2% HSA), 2 nM; at A2A receptor [1] (IC50 (nM) (5 μM Adenosine as agonist, 2.0% HSA), 5 μM Adenosine as agonist, 2.0% HSA), 49 nM; on A2A receptor [3] (IC50 (nM) (500 nM CGS-21680 as agonist, 10% FBS), 500 nM CGS-21680, 10% FBS) it was 0.3 nM; on A2A receptor [3] (IC50 (nM) (5000 nM CGS-21680 as agonist, 50% HSA), 5000 nM CGS-21680, 50% HSA), 63 nM; at A2A receptor [4], 0.02 µM. In addition, the concentration at 0.5 h in data set [2] (CSF, 10 mg/kg, individual mice, PO 10 mg/kg, 0.500 h, read-out: CSF Concentration) was under 3 ng/mL; in data set [2] (CSF, 10 mg/kg, mean of 3 mice, PO 10 mg/kg, 0.500 h, read-out: CSF Concentration (ng/mL), Mean), under 3 ng/mL; in data set [2] (brain, 10 mg/kg, individual mice, PO 10 mg/kg, 0.500 h, read-out: Brain Concentration), under 15 ng/g; in data set [2] (brain, 10 mg/kg, mean of 3 mice, PO 10 mg/kg, 0.500 h, read-out: Brain Concentration (ng/g), Mean), under 16 ng/g. The Kp at 0.5 h is under 0.005 in data set [2] (CSF, 10 mg/kg, individual mice, PO 10 mg/kg, 0.500 h, read-out: CSF/Plasma Ratio); under 0.004 in data set [2] (CSF, 10 mg/kg, mean of 3 mice, PO 10 mg/kg, 0.500 h, read-out: CSF/Plasma Ratio, Mean); under 0.026 in data set [2] (brain, 10 mg/kg, individual mice, PO 10 mg/kg, 0.500 h, read-out: Brain/Plasma Ratio); under 0.021 in data set [2] (brain, 10 mg/kg, mean of 3 mice, PO 10 mg/kg, 0.500 h, read-out: Brain/Plasma Ratio, Mean). For the same compound, the plasma concentration at 0.5 h was determined as 779 ng/mL in data set [2] (10 mg/kg, Mean, mean of 3 mice, PO 10 mg/kg, 0.500 h) and 576 ng/mL in data set [2] (10 mg/kg, individual mice, PO 10 mg/kg, 0.500 h, female Balb-c mice). The “CSF Concentration” value in data set [2] (individual mice, PO 10 mg/kg, 0.500 h) was under 3 ng/mL. The “Plasma Concentration” value in data set [2] (individual mice, PO 10 mg/kg, 0.500 h, female Balb-c mice, 10 mg/kg) is 995 ng/mL and 765 ng/mL. Moreover, the “Brain Concentration” value in data set [2] (setting [5]) was 16.9 ng/g and <15 ng/g. In addition, the “Brain/Plasma Ratio” value in data set [2] (setting [5]) is 0.0169 and <0.020. The “CSF/Plasma Ratio” value in data set [2] (setting [5]) was <0.003 and <0.004. The “quantity found in brain or CSF” value in data set [2] (mice, oral 10 mg/kg) was “no measurable quantity”.

The values above are taken from patent publication US10995101B2, “2-oxo-thiazole derivatives as A2A inhibitors and compounds for use in the treatment of cancers” (iTeos Therapeutics SA, priority 2017, dated 2021).
